Measured values from US11981658B2, “Substituted aminopyridine compounds as EGFR inhibitors” (YUHAN CORPORATION, priority 2021, dated 2024).
Read-outs that look alike come from different tables or passages of the source.

Experiments:
[1] = target: EGFR Del19/T790M/C797S (Homo sapiens, UniProt P00533, C797S/DEL746-750/T790M); test: Biochemical EGFR kinase inhibition assay (Lance Ultra TR-FRET), triple mutant del19/T790M/C797S
In short: (§1)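 In this biochemical assay, phosphorylation after a one-hour room-temperature reaction was detected with europium-labelled anti-phosphopeptide antibody at 2 nM final concentration.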

[2] = target: EGFR L858R/T790M/C797S (Homo sapiens, UniProt P00533, C797S/L858R/T790M); test: Biochemical EGFR kinase inhibition assay (Lance Ultra TR-FRET), triple mutant L858R/T790M/C797S
Chain of EGFR L858R/T790M/C797S (P00533 25-1210 T790M/C797S/L858R): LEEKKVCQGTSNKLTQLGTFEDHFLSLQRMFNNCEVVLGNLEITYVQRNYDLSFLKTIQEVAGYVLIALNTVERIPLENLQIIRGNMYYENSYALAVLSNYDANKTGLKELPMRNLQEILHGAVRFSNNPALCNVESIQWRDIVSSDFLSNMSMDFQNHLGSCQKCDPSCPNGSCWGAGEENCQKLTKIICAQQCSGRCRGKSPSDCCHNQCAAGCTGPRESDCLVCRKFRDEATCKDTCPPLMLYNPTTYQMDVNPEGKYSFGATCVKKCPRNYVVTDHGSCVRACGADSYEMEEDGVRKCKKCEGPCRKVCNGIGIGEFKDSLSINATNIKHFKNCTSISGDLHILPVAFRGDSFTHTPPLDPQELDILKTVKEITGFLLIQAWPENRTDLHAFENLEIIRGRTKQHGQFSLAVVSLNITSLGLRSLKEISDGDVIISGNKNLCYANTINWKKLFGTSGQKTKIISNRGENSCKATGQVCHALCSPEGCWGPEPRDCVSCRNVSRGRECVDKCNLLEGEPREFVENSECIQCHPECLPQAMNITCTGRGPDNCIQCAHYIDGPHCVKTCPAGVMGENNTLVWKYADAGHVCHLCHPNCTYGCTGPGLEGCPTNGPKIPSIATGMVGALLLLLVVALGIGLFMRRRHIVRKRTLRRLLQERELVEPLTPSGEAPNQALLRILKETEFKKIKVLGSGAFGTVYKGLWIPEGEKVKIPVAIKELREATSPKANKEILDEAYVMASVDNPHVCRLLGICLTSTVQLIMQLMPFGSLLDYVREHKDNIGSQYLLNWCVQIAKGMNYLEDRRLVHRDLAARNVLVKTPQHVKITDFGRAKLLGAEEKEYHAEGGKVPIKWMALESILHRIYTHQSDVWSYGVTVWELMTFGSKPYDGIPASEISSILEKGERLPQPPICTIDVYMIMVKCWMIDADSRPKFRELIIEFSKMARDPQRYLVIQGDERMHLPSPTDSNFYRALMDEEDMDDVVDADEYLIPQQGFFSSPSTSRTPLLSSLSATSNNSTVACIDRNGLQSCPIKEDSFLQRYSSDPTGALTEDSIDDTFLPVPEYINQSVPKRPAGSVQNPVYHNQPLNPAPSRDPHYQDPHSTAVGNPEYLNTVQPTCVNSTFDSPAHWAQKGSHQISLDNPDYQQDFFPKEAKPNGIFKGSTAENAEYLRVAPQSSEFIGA
In short: as §1

[3] = target: EGFR Del19/C797S (Homo sapiens, UniProt P00533, C797S/DEL746-750); test: Biochemical EGFR kinase inhibition assay (Lance Ultra TR-FRET), double mutant del19/C797S
Chain of EGFR Del19/C797S (P00533 with tags, fused parts or gaps DEL746-750/C797S): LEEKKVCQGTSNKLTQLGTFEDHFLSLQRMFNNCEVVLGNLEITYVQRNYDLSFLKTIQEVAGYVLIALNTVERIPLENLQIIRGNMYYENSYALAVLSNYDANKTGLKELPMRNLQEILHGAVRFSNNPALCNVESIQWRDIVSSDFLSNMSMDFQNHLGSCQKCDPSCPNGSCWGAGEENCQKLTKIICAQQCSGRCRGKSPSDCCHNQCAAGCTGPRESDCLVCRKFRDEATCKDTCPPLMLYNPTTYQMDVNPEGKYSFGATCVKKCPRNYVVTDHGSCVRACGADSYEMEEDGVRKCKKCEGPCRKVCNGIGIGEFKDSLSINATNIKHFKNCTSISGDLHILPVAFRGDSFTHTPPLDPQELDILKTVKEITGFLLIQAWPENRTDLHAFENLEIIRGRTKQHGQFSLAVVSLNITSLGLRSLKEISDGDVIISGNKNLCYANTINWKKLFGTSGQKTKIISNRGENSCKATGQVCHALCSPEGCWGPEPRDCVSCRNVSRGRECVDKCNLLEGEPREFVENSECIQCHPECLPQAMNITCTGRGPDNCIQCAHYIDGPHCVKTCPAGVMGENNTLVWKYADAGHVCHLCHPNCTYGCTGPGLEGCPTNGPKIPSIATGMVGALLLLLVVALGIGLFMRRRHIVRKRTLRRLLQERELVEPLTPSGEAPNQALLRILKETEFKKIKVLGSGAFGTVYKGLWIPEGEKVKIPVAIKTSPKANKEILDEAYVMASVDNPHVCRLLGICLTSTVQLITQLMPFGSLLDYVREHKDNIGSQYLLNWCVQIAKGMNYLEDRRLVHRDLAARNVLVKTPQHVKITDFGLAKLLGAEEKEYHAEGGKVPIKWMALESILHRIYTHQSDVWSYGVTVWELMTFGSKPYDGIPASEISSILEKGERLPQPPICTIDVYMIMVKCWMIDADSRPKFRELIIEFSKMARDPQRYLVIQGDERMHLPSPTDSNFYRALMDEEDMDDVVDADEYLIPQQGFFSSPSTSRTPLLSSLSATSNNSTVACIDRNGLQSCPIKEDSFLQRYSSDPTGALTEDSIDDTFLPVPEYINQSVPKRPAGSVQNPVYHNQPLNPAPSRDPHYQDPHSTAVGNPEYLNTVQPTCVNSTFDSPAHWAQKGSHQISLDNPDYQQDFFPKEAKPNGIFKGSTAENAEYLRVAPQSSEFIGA
In short: as §1

[4] = target: EGFR L858R/C797S (Homo sapiens, UniProt P00533, C797S/L858R); test: Biochemical EGFR kinase inhibition assay (Lance Ultra TR-FRET), double mutant L858R/C797S
Chain of EGFR L858R/C797S (P00533 25-1210 C797S/L858R): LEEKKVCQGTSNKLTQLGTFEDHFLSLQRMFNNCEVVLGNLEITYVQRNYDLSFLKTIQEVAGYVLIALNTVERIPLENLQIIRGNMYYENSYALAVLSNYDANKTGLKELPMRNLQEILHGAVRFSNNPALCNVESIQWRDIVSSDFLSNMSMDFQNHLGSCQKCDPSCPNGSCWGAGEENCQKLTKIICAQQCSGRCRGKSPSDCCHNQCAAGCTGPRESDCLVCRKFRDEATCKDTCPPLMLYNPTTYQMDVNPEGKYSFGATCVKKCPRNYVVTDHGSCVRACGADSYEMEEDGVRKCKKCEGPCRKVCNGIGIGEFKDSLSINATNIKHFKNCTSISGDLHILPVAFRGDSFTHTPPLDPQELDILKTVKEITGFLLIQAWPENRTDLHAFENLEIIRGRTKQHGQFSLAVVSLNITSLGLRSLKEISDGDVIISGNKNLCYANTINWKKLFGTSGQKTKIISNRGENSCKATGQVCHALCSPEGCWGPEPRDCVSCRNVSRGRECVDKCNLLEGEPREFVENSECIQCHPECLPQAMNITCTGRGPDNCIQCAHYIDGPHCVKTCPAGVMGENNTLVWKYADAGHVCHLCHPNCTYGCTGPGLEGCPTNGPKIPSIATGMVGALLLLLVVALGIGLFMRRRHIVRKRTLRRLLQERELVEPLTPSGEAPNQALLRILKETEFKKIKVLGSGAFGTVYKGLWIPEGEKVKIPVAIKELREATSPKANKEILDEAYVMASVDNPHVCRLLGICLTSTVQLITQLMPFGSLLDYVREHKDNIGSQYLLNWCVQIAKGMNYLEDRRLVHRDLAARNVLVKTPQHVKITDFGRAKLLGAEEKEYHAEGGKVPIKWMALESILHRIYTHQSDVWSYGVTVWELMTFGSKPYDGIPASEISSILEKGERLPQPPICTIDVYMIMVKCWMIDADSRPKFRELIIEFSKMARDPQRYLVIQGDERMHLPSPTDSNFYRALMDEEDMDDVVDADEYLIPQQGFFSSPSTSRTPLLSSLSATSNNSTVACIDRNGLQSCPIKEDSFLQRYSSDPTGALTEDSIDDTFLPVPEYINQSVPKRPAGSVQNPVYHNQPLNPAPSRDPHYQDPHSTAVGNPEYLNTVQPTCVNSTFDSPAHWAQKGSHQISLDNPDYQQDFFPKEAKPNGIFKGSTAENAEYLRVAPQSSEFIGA
In short: as §1

[5] = target: EGFR wildtype (WT) (Homo sapiens, UniProt P00533); test: Biochemical EGFR kinase inhibition assay (Lance Ultra TR-FRET), wildtype
In short: as §1

[6] = IC50 Del19/T790M/C797S (nM), 100 μM ATP
[7] = Km ATP, read-out: IC50 Del19/T790M/C797S (nM), Km ATP
[8] = IC50 L858R/T790M/C797S (nM), 100 μM ATP
[9] = Km ATP, read-out: IC50 L858R/T790M/C797S (nM), Km ATP
[10] = IC50 Del19/C797S (nM), 100 μM ATP
[11] = Km ATP, read-out: IC50 Del19/C797S (nM), Km ATP
[12] = IC50 L858R/C797S (nM), 100 μM ATP
[13] = Km ATP, read-out: IC50 L858R/C797S (nM), Km ATP
[14] = Km ATP, read-out: IC50 WT (nM), Km ATP
[15] = ATP at Km, read-out: IC50 Del19/T790M/C797S (nM), Km ATP
[16] = ATP at Km, read-out: IC50 L858R/T790M/C797S (nM), Km ATP
[17] = ATP at Km, read-out: IC50 Del19/C797S (nM), Km ATP
[18] = ATP at Km, read-out: IC50 L858R/C797S (nM), Km ATP
[19] = ATP at Km, read-out: IC50 WT (nM), Km ATP

Chain of EGFR Del19/T790M/C797S (P00533 with tags, fused parts or gaps DEL746-750/T790M/C797S): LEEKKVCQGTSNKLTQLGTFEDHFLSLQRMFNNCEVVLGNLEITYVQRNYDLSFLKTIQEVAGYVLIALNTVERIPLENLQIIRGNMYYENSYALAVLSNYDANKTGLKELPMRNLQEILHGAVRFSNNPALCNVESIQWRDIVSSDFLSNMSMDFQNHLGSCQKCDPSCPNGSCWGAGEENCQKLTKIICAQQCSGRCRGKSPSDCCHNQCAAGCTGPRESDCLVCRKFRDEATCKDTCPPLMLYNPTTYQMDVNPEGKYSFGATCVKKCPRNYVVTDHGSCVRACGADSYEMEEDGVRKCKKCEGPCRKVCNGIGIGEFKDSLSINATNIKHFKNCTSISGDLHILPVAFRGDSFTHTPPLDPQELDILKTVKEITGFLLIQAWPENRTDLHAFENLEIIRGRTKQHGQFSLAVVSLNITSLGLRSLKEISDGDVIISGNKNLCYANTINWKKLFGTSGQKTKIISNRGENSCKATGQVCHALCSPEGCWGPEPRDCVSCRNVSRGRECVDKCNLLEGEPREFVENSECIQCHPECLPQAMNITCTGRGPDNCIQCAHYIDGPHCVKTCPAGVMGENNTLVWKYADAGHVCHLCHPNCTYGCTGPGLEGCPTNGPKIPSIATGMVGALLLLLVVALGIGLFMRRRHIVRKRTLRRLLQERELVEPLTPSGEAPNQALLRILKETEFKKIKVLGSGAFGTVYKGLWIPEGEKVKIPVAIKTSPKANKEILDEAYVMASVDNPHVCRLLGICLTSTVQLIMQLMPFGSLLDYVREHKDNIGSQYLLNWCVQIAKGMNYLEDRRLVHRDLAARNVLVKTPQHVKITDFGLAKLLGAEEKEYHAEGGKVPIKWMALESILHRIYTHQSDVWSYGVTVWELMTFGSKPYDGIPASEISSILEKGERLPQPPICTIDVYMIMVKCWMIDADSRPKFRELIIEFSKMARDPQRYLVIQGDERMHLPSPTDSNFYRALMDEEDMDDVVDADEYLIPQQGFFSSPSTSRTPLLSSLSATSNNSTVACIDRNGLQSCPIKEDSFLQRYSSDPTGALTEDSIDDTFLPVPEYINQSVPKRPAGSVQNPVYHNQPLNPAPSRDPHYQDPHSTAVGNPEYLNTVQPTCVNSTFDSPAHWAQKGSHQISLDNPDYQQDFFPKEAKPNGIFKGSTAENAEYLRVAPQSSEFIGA

SMILES	IC50 [1, 6] [nM]	IC50 [1, 7] [nM]	IC50 [2, 8] [nM]	IC50 [2, 9] [nM]	IC50 [3, 10] [nM]	IC50 [3, 11] [nM]	IC50 [4, 12] [nM]	IC50 [4, 13] [nM]	IC50 ([5]; IC50 WT (nM), 100 μM ATP) [nM]	IC50 [5, 14] [nM]	IC50 [1, 15] [nM]	IC50 [2, 16] [nM]	IC50 [3, 17] [nM]	IC50 [4, 18] [nM]	IC50 [5, 19] [nM]	IC50 ([1]; Km ATP, read-out: IC50 Del19/T790M/C797S (nM) Km ATP) [nM]	IC50 ([2]; Km ATP, read-out: IC50 L858R/T790M/C797S (nM) Km ATP) [nM]	IC50 ([3]; Km ATP, read-out: IC50 Del19/C797S (nM) Km ATP) [nM]	IC50 ([4]; Km ATP, read-out: IC50 L858R/C797S (nM) Km ATP) [nM]	IC50 ([5]; Km ATP, read-out: IC50 WT (nM) Km ATP) [nM]
CNCC1(F)CCN(c2cc(Nc3ccnc(-c4cnn(S(=O)(=O)C5CC5)c4)n3)ncc2C#Cc2cnn(C)c2)CC1 [Example 382, 2-(1-(Cyclopropylsulfonyl)-1H-pyrazol-4-yl)-N-(4-(4-fluoro-4-((methylamino)methyl)piperidin-1-yl)-5-((1-methyl-1H-pyrazol-4-yl)ethynyl)pyridin-2-yl)pyrimidin-4-amine]	0.2	0.2	0.4	0.2	2.9	2.1	32.4	5.5	5000	10.4	–	–	–	–	–	–	–	–	–	–
CC1(CO)CCN(c2cc(Nc3ccnc(-c4cnn(S(=O)(=O)C5CC5)c4)n3)ncc2C#CCCN2CCOCC2)CC1 [Example 285, (1-(2-((2-(1-(Cyclopropylsulfonyl)-1H-pyrazol-4-yl)pyrimidin-4-yl)amino)-5-(4-morpholinobut-1-yn-1-yl)pyridin-4-yl)-4-methylpiperidin-4-yl)methanol]	1	–	0.6	–	1.1	–	1.3	–	1250	–	0.8	0.4	0.4	0.1	2.5	–	–	–	–	–
O=S(=O)(C1CC1)n1cc(-c2nccc(Nc3cc(N[C@H]4CC[C@@H](CO)CC4)c(C#Cc4cnn(C(F)(F)F)c4)cn3)n2)cn1 [Example 336, ((1s,4s)-4-((2-((2-(1-(Cyclopropylsulfonyl)-1H-pyrazol-4-yl)pyrimidin-4-yl)amino)-5-((1-(trifluoromethyl)-1H-pyrazol-4-yl)ethynyl)pyridin-4-yl)amino)cyclohexyl)methanol]	3.9	2	2.4	1.3	38.2	26.1	1750	50.1	> 10000	295	–	–	–	–	–	–	–	–	–	–
O=S(=O)(C1CC1)n1cc(-c2nccc(Nc3cc(NC4CCC(CO)CC4)c(C#Cc4cnn(C5CC5(F)F)c4)cn3)n2)cn1 (centres unmarked) [Example 327, ((1s,4s)-4-((2-((2-(1-(Cyclopropylsulfonyl)-1H-pyrazol-4-yl)pyrimidin-4-yl)amino)-5-((1-(2,2-difluorocyclopropyl)-1H-pyrazol-4-yl)ethynyl)pyridin-4-yl)amino)cyclohexyl)methanol]	2.5	–	1.5	–	4.8	–	39.3	–	> 10000	–	2.2	0.8	1.6	2.1	11.9	–	–	–	–	–
CC(C)(O)CC#Cc1cnc(Nc2ccnc(-c3cnn(S(=O)(=O)C4CC4)c3)n2)cc1N1CCC(C)(CO)CC1 [Example 284, 5-(6-((2-(1-(Cyclopropylsulfonyl)-1H-pyrazol-4-yl)pyrimidin-4-yl)amino)-4-(4-(hydroxymethyl)-4-methylpiperidin-1-yl)pyridin-3-yl)-2-methylpent-4-yn-2-ol]	4.4	–	1.7	–	6.8	–	15.9	–	7270	–	1.1	–	2.8	1.7	12.6	–	–	–	–	–
C[C@]1(O)CC[C@@H](Nc2cc(Nc3ccnc(-c4cnn(S(=O)(=O)C5CC5)c4)n3)ncc2C#Cc2cnn(CC(F)(F)F)c2)CC1 [Example 344, (1s, 4s)-4-((2-((2-(1-(Cyclopropylsulfonyl)-1H-pyrazol-4-yl)pyrimidin-4-yl)amino)-5-((1-(2,2,2-trifluoroethyl)-1H-pyrazol-4-yl)ethynyl)pyridin-4-yl)amino)-1-methylcyclohexan-1-ol]	11.5	7.9	5	3.1	50.6	31.3	112	24.1	> 10000	200	–	–	–	–	–	–	–	–	–	–
CC1(C#Cc2cnc(Nc3ccnc(-c4cnn(S(=O)(=O)C5CC5)c4)n3)cc2N2CCC(C)(CO)CC2)CC1 [Example 358, (1-(2-((2-(1-(Cyclopropylsulfonyl)-1H-pyrazol-4-yl)pyrimidin-4-yl)amino)-5-((1-methylcyclopropyl)ethynyl)pyridin-4-yl)-4-methylpiperidin-4-yl)methanol]	1.7	1.2	1.6	0.7	3.7	1.9	30.2	3.8	6280	22.9	–	–	–	–	–	–	–	–	–	–
CN1CCN(c2cc(Nc3ccnc(-c4cnn(S(=O)(=O)C5CC5)c4)n3)ncc2C#Cc2cnn(C)c2)CC1 [Example 1, 2-(1-(Cyclopropylsulfonyl)-1H-pyrazol-4-yl)-N-(5-((1-methyl-1H-pyrazol-4-yl)ethynyl)-4-(4-methylpiperazin-1-yl)pyridin-2-yl)pyrimidin-4-amine]	–	–	–	–	–	–	–	–	–	–	–	–	–	–	–	1.3	5.4	71.3	34.6	230
O=S(=O)(C1CC1)n1cc(-c2nccc(Nc3cc(N4CCCC(O)C4)c(C#Cc4cnn(CC(F)(F)F)c4)cn3)n2)cn1 (centres unmarked) [Example 343, 1-(2-((2-(1-(Cyclopropylsulfonyl)-1H-pyrazol-4-yl)pyrimidin-4-yl)amino)-5-((1-(2,2,2-trifluoroethyl)-1H-pyrazol-4-yl)ethynyl)pyridin-4-yl)piperidin-3-ol]	1.9	2.6	3.1	0.7	19.2	11.9	68.1	19.8	> 10000	55.5	–	–	–	–	–	–	–	–	–	–
O=S(=O)(C1CC1)n1cc(-c2nccc(Nc3cc(NC[C@H]4CC[C@H](CO)CC4)c(C#CC4CC5CCC4O5)cn3)n2)cn1 (some centres unmarked) [Example 425, ((1r,4r)-4-(((5-((7-Oxabicyclo[2.2.1]heptan-2-yl)ethynyl)-2-((2-(1-(cyclopropylsulfonyl)-1H-pyrazol-4-yl)pyrimidin-4-yl)amino)pyridin-4-yl)amino)methyl)cyclohexyl)methanol]	2.5	–	5.4	–	120	–	1820	–	> 10000	–	–	–	–	–	–	–	–	–	–	–
